The IC50 is the concentration needed to halve the response being measured.

This assay has as its target T1, Acetolactate synthase, chloroplastic (Arabidopsis thaliana, UniProt P17597).
T1 sequence (P17597 whole entry): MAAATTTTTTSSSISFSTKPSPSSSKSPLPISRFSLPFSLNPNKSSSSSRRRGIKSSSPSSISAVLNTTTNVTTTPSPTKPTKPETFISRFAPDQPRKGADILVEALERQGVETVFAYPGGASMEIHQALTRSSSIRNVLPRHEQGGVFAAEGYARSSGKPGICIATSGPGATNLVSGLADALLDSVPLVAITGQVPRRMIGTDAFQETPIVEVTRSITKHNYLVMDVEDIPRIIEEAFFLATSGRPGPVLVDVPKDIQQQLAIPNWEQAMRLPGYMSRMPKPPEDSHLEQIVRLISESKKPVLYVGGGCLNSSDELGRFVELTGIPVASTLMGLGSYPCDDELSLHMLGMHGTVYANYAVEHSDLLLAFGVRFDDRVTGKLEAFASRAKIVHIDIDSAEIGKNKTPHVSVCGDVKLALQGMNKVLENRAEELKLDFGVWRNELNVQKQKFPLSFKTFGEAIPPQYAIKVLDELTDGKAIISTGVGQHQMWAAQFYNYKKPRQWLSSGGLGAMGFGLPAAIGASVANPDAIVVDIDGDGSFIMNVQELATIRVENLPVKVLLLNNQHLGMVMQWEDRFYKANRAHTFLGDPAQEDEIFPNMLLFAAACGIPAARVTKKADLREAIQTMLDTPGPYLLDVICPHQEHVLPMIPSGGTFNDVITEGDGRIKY
The assay can be described thus: ChEBML_27494. From the text:
Inhibitory activity against Acetolactate synthase (ALS) enzyme by using the rape-root growth method

The compound `O=C(OCn1ccc(=O)[nH]c1=O)c1ccccc1` displayed an IC50 of 208 µM.

In turn, `O=C(OCn1ccc(=O)[nH]c1=O)c1c(Cl)cc(C(F)(F)F)cc1Cl` came in with an IC50 of more than 261 µM. The value for `Cc1cnc(NS(=O)(=O)c2cc(Cl)ccc2Cl)s1` [2,5-Dichloro-N-(5-methyl-thiazol-2-yl)-benzenesulfonamide] was more than 309 µM; that for `O=C(OCn1ccc(=O)[nH]c1=O)c1ccc([N+](=O)[O-])cc1` was more than 344 µM; that for `O=C(OCn1ccc(=O)[nH]c1=O)c1ccc(Br)cc1` was 169 µM. The compound `COc1ccccc1C(=O)OCn1ccc(=O)[nH]c1=O` came in with an IC50 of more than 362 µM. The value for `COc1cc(Cl)nc(NS(=O)(=O)c2ccc(F)cc2)n1` [N-(4-Chloro-6-methoxy-pyrimidin-2-yl)-4-fluoro-benzenesulfonamide] was 111 µM; that for `O=C(OCn1ccc(=O)[nH]c1=O)c1ccc(Cl)cc1` was 182 µM; that for `O=C(OCn1ccc(=O)[nH]c1=O)c1ccc(F)cc1` was 212 µM. For `O=C(OCn1ccc(=O)[nH]c1=O)c1ccc(I)cc1` the value was more than 269 µM. The compound `COc1ccc(C(=O)OCn2ccc(=O)[nH]c2=O)cc1` displayed an IC50 of more than 362 µM.

On to `Cc1ccnc(NS(=O)(=O)c2ccccc2[N+](=O)[O-])n1` [N-(4-Methyl-pyrimidin-2-yl)-2-nitro-benzenesulfonamide], for which the midpoint of inhibition, the IC50, lay at 287 µM. Take `Cc1cccc(C(=O)OCn2ccc(=O)[nH]c2=O)c1`: the IC50 worked out at 62 µM. The value for `Cc1ccc(NS(=O)(=O)c2ccc(F)cc2)nc1` [4-Fluoro-N-(5-methyl-pyridin-2-yl)-benzenesulfonamide] was 152 µM.

Values taken from BindingDB's records for doi:10.1016/s0960-894x(99)00301-7 (Nankai University, 1999).
